Assay results published in PubChem BioAssay (NCI).
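Protocol summary: plate cells (96-well), add compound at 5 concentrations, incubate 48 h, interpolate endpoints linearly. TGI denotes the concentration required for complete inhibition of growth.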

Columns and labels:
Test in all cases: NCI anticancer screen, dose series, 48 h
786-0 renal = system: 786-0 renal
A549 NSCLC = system: A549 NSCLC
ACHN renal = system: ACHN renal
BT-549 breast = system: BT-549 breast
CAKI-1 renal = system: CAKI-1 renal
CCRF-CEM leukemia = system: CCRF-CEM leukemia
COLO 205 colon = system: COLO 205 colon
DU-145 prostate = system: DU-145 prostate
EKVX NSCLC = system: EKVX NSCLC
HCC-2998 colon = system: HCC-2998 colon
HCT-116 colon = system: HCT-116 colon
HCT-15 colon = system: HCT-15 colon
HL-60(TB) leukemia = system: HL-60(TB) leukemia
HOP-62 NSCLC = system: HOP-62 NSCLC
HOP-92 NSCLC = system: HOP-92 NSCLC
HS 578T breast = system: HS 578T breast
HT29 colon = system: HT29 colon
IGROV1 ovarian = system: IGROV1 ovarian
K-562 leukemia = system: K-562 leukemia
KM12 colon = system: KM12 colon
LOX IMVI melanoma = system: LOX IMVI melanoma
M14 melanoma = system: M14 melanoma
MCF7 breast = system: MCF7 breast
MDA-MB-231 breast = system: MDA-MB-231 breast
MDA-MB-435 = system: MDA-MB-435
MDA-N = system: MDA-N
MOLT-4 leukemia = system: MOLT-4 leukemia
NCI-H226 lung = system: NCI-H226 lung
NCI-H23 lung = system: NCI-H23 lung
NCI-H460 lung = system: NCI-H460 lung
NCI-H522 lung = system: NCI-H522 lung
NCI/ADR-RES ovarian = system: NCI/ADR-RES ovarian
OVCAR-3 ovarian = system: OVCAR-3 ovarian
OVCAR-4 ovarian = system: OVCAR-4 ovarian
OVCAR-5 ovarian = system: OVCAR-5 ovarian
OVCAR-8 ovarian = system: OVCAR-8 ovarian
PC-3 prostate = system: PC-3 prostate
RPMI-8226 leukemia = system: RPMI-8226 leukemia
RXF 393 renal = system: RXF 393 renal
SF-268 CNS = system: SF-268 CNS
SF-295 CNS = system: SF-295 CNS
SF-539 CNS = system: SF-539 CNS
SK-MEL-2 melanoma = system: SK-MEL-2 melanoma
SK-MEL-5 melanoma = system: SK-MEL-5 melanoma
SK-OV-3 ovarian = system: SK-OV-3 ovarian
SN12C renal = system: SN12C renal
SNB-19 CNS = system: SNB-19 CNS
SR leukemia = system: SR leukemia
SW-620 colon = system: SW-620 colon
T-47D breast = system: T-47D breast
TK-10 renal = system: TK-10 renal
U251 CNS = system: U251 CNS
UACC-257 melanoma = system: UACC-257 melanoma
UACC-62 melanoma = system: UACC-62 melanoma
UO-31 renal = system: UO-31 renal

For `CCOP(=O)(OCC)/C(=C/NC(=S)c1ccncc1)C(=O)OC`, the TGI (786-0 renal) was > 100 µM, the TGI (A549 NSCLC) was > 100 µM and the TGI (ACHN renal) was > 100 µM. The TGI (BT-549 breast) was > 100 µM, the TGI (CAKI-1 renal) was > 100 µM and the TGI (CCRF-CEM leukemia) was 64.8 µM. The TGI (COLO 205 colon) was > 100 µM, the TGI (DU-145 prostate) was > 100 µM and the TGI (EKVX NSCLC) was > 100 µM. For the same compound, the TGI (HCC-2998 colon) was > 100 µM, the TGI (HCT-116 colon) was > 100 µM and the TGI (HCT-15 colon) was > 100 µM. The TGI (HL-60(TB) leukemia) was > 100 µM, the TGI (HOP-62 NSCLC) was > 100 µM and the TGI (HOP-92 NSCLC) was > 100 µM. For the same compound, the TGI (HS 578T breast) was > 100 µM, the TGI (HT29 colon) was > 100 µM and the TGI (IGROV1 ovarian) was > 100 µM. The TGI (K-562 leukemia) was > 100 µM, the TGI (KM12 colon) was > 100 µM and the TGI (LOX IMVI melanoma) was > 100 µM. The TGI (M14 melanoma) was > 100 µM, the TGI (MCF7 breast) was > 100 µM and the TGI (MDA-MB-231 breast) was > 100 µM. The TGI (MDA-MB-435) was > 100 µM, the TGI (MDA-N) was > 100 µM and the TGI (MOLT-4 leukemia) was > 100 µM. The TGI (NCI-H226 lung) was > 100 µM, the TGI (NCI-H23 lung) was > 100 µM and the TGI (NCI-H460 lung) was > 100 µM. For the same compound, the TGI (NCI-H522 lung) was > 100 µM, the TGI (NCI/ADR-RES ovarian) was > 100 µM and the TGI (OVCAR-3 ovarian) was > 100 µM. The TGI (OVCAR-4 ovarian) was > 100 µM, the TGI (OVCAR-5 ovarian) was > 100 µM and the TGI (OVCAR-8 ovarian) was > 100 µM. The TGI (PC-3 prostate) was > 100 µM, the TGI (RPMI-8226 leukemia) was > 100 µM and the TGI (RXF 393 renal) was > 100 µM. The TGI (SF-268 CNS) was > 100 µM, the TGI (SF-295 CNS) was > 100 µM and the TGI (SF-539 CNS) was > 100 µM. For the same compound, the TGI (SK-MEL-2 melanoma) was > 100 µM, the TGI (SK-MEL-5 melanoma) was > 100 µM and the TGI (SK-OV-3 ovarian) was > 100 µM. For the same compound, the TGI (SN12C renal) was > 100 µM, the TGI (SNB-19 CNS) was > 100 µM and the TGI (SR leukemia) was > 100 µM. The TGI (SW-620 colon) was > 100 µM, the TGI (T-47D breast) was > 100 µM and the TGI (TK-10 renal) was > 100 µM. The TGI (U251 CNS) was > 100 µM, the TGI (UACC-257 melanoma) was > 100 µM and the TGI (UACC-62 melanoma) was > 100 µM. For the same compound, the TGI (UO-31 renal) was > 100 µM.
